Laboratory results from US20230346901A1, “METHODS AND VACCINE COMPOSITIONS TO TREAT CANCERS” (priority 2019, published 2023).
Ends that are not written are not given here.

Experiments:
U2OS cells = experiment: Immunogenic cell death markers (HMGB1, ATP release) in U2OS cells; type: cell-based
Procedure: ((A) U2OS cells were left untreated or exposed to increasing concentrations of RT39 for 3 h. Extracellular HMGB1 was then measured in the culture supernatant by an ELISA assay. Data are means±s.e.m. (n=3). (B) U2OS cells were left untreated or exposed to increasing concentrations of RT39 for 3 h. Extracellular ATP was then measured in the culture supernatant using an ATP-bioluminescence assay. Data are means±s.e.m. (n=3).
Release of lactate dehydrogenase (LDH) and ATP in the culture medium were assessed with the CytoTox 96 Non-Radioactive Cytotoxicity Assay and Enliten ATP Assay, respectively (Promega, Madison, WI, USA). HMGB1 release in the culture medium was assessed with the HMGB1 ELISA kit (IBL International, Hamburg, Germany).

[1] = tested on: spleen cells from healthy mice; type: cell-based, mouse; conditions: up to the highest concentration tested, 20 h
Procedure: FIG. 1: RT53 treatment increases APL mice survival. (A) The indicated cells were left untreated or exposed to increasing concentrations of RT53 for 20 h. Cell death induced by peptide treatment was measured by lactate dehydrogenase (LDH) release. Data are means±s.e.m. (n=3). (B) APL spleen cells were exposed to 5 μM of RT53 in the presence or absence of 50 μM zVAD-fmk or 50 μM Necrostatin-1 (Nec-1) for 3 h. Necrotic cell death was monitored by lactate dehydrogenase (LDH) release from cells into the culture medium. The obtained values were normalized to those of the maximum LDH released (completely lysed) control. Data are means±s.e.m. (n=3). (C) 104 APL blasts were inoculated intravenously (i.v.) into FVB/N mice at day zero. […] Survival curves were analyzed with the Mantel-Cox test. […] Survival curves were analyzed with the Mantel-Cox test.
Release of lactate dehydrogenase (LDH) and ATP in the culture medium were assessed with the CytoTox 96 Non-Radioactive Cytotoxicity Assay and Enliten ATP Assay, respectively (Promega, Madison, WI, USA). HMGB1 release in the culture medium was assessed with the HMGB1 ELISA kit (IBL International, Hamburg, Germany). […]

normal spleen cells = experiment: Electron microscopy ultrastructural analysis, normal spleen cells; type: cell-based, mouse; conditions: normal spleen cells exposed to RT53 (data not shown)
Procedure: Samples were fixed in 3% glutaraldehyde in phosphate buffer, pH 7.4 for 1 hour, washed, post-fixed with 1% osmium tetroxide in 0.1 M phosphate buffer and then gradually dehydrated in 70, 90 and 100% ethanol. After 10 min in a 1:2 mixture of epoxy propane and epoxy resin and 10 min in epon, samples were embedded in epoxy resin and polymerized at 60° C. for 24 h. After polymerisation, ultrathin sections of 90 nm were cut with an ultra-microtome (Reichert ultracut S), stained with uranyl acetate and Reynold's lead and observed with a transmission electron microscope (JEOL 1011). Acquisition was performed with a Gatan Orius 1000 CCD camera.
To test the antileukemic properties of RT53, we first exposed human all-trans retinoic acid (ATRA)-sensitive (NB4) and ATRA-resistant (UF-1) acute promyelocytic leukemia (APL) cells as well as mouse APL spleen blast cells derived from hMRP8-PML-RARA transgenic mice9 to increasing concentrations of RT53.

[2] = Organ toxicity in peptide-treated APL mice; type: in vivo, FVB/N mice; conditions: either treatment schedule (data not shown)
Procedure: APL blasts (provided by Drs. M. Bishop and S. Kogan, UCSF, USA) origin from the spleen of mice bearing the human PML-RARA cDNA construct driven by a myeloid linage specific promoter (hMRP8) in the FVB/N inbred strain of mice. For amplification, cells (1×105 or 1×106) were suspended in PBS and transplanted by intravenous (i.v) tail injection (200 uL) into female syngeneic recipient mice (5-6 weeks old). Establishment of leukemia was assessed by a decrease in blood platelet counts approx. 3 weeks after graft. Spleen cells from a primary recipient were collected, washed, re-suspended in PBS and injected (10^4 cells/mouse; 200 uL) into the tail veins of male FVB/N mice (7-8 weeks old) for experiments. For direct treatment experiments, mice were treated daily or every other day (i.p) with normal saline, RT53 or RT39 at 2.4 mg/kg in normal saline starting from day 10 or day 20 for a total of 7 injections.
To explore the in vivo therapeutic potential of RT53 as a treatment of acute leukemia, we used a well-characterized preclinical APL model bearing the human PML-RARA oncogene which mimics human APL, both in its characteristics and its response to conventional therapeutic drugs such as ATRA and arsenic trioxide^9, 10. In this model, 100% of the syngeneic mice (FVB/N) transplanted with 104 primary recipients' spleen blasts developed an APL and succumbed within 30 days (FIG. 1C).

[3] = U2OS cells, increasing concentrations of RT39, 3 h

RQIKIWFQNRRMKWKKLQYFARGLQVYIRQLRLALQGKT (Synthetic Fusion protein RT39) [fusion of penetratin with AAC-11 leucine-zipper derived peptide (377-399)]
extracellular ATP release (ATP-bioluminescence) (U2OS cells; [3]): triggers calreticulin exposure as well as the release of HMGB1 and ATP | extracellular HMGB1 release (ELISA) (U2OS cells; [3]): triggers calreticulin exposure as well as the release of HMGB1 and ATP | calreticulin exposure (U2OS cells; stated in figure title only, cells not given): triggers calreticulin exposure

RQIKIWFQNRRMKWKKAKLNAEKLKDFKIRLQYFARGLQVYIRQLRLALQGKT [RT53]
cell death by LDH release in normal cells [1]: no cell death was detected | cellular integrity by ultrastructural analysis (normal spleen cells): No changes in cellular integrity or ruptured cells could be detected | organ toxicity (macroscopic or microscopic) [2]: No organ toxicity
